# Assay results from paper PMC13600695, “Identifying a novel mechanism of L-leucine uptake in Mycobacterium tuberculosis using a chemical genomic approach” (eLife, 2026).
# pKd: −log10 of the molar value.
# Molecular target: PpsB (6x His-PpsB) (Mycobacterium tuberculosis, UniProt P9WQE5)
# Experiment: biochemical
# PpsB (6x His-PpsB), sequence (P9WQE5 whole entry): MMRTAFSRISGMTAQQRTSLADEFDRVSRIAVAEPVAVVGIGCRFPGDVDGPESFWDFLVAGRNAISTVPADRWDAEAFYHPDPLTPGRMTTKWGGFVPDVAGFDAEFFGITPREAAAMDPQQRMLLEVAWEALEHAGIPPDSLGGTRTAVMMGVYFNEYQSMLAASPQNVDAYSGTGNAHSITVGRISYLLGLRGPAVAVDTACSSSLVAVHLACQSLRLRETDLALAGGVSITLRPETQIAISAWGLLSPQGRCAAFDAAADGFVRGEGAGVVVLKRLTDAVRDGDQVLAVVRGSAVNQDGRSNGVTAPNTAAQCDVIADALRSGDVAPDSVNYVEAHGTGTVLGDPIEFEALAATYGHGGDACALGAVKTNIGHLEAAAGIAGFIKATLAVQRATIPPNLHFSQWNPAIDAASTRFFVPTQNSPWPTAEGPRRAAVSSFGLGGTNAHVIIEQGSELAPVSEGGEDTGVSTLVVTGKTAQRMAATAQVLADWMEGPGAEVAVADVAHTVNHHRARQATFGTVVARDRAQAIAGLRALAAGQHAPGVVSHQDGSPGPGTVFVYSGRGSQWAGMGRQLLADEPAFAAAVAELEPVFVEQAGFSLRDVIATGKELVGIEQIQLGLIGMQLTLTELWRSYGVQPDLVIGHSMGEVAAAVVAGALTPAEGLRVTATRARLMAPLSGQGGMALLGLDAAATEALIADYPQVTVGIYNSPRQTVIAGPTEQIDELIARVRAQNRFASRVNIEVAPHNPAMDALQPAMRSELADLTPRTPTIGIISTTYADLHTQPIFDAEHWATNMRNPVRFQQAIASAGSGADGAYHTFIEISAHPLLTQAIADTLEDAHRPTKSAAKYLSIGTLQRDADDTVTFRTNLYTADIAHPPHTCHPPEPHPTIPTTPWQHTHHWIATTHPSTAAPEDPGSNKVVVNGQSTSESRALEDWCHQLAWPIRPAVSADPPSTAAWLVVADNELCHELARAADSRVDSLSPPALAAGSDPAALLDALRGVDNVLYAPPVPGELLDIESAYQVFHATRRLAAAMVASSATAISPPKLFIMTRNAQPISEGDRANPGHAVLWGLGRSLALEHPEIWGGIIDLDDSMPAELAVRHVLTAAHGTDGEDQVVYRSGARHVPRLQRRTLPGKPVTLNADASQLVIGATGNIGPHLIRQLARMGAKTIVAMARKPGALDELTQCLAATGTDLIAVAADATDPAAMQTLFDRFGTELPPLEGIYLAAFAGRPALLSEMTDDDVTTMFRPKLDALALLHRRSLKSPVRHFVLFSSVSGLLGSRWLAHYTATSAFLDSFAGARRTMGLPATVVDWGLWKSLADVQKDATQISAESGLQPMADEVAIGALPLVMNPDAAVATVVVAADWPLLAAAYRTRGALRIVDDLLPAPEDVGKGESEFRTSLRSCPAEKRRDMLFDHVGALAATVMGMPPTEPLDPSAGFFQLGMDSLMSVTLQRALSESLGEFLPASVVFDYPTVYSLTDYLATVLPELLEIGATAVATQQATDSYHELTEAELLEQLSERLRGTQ
smiles,measurement,value
C/C(=N\NC(=N)N)c1cc(NC(=O)CCCCCCCCC(=O)Nc2cc(/C(C)=N/NC(=N)N)cc(/C(C)=N/NC(=N)N)c2)cc(/C(C)=N/NC(=N)N)c1 [semapimod],pKd,6.96
